Measurements reported in patent US9173875B2, “Treatment for nicotine-induced lung disease using peroxisome proliferator-activated receptor gamma agonists” (Los Angeles Biomedical Research Institute at Harbor-UCLA …, priority 2006, dated 2015).

What was measured:
WI38 cells [1] = test: Reversal experiment, immunofluorescence double staining (ADRP or lipid droplets and αSMA) in WI38 cells; assay type: cell-based, human; settings: RGZ 1×10^−5 M, DBcAMP 1×10^−5 M, 7 days after nicotine
Procedure: Cells were grown in minimum essential medium (MEM) +10% fetal bovine serum at 37° C. in six-well plates, two well slides, and 60-mm and 100-mm culture dishes, as needed. […] Subsequently, the cells were treated with rosiglitazone (RGZ) (1×10^−5 M) (a PPARγ agonist), PTHrP (5×10^−7 M), or DBcAMP (1×10^−5 M) for 7 days, and the expression of PTHrP receptor, PPARγ, ADRP, calponin, and cSMA was determined by Western analysis and immunohistochemistry. Simultaneously, fibroblast function was characterized by measuring their capacity to take up triglycerides. Some experiments were performed in the presence of a specific PPARγ antagonist, GW9662. Medium containing fresh chemicals was added daily, and at the end of the experimental period the cells were processed as needed.
The lipogenic and myogenic status of cultured WI38 cells was assessed by simultaneous staining for either lipid droplets or ADRP and αSMA. Lipids were detected by using either oil red 0 staining or ADRP expression (polyclonal anti-ADRP 1:500), and αSMA expression was assessed by using anti-αSMA (1:1000, mouse monoclonal IgG2a, Sigma, catalog No. A2547) primary antibody. […] At the end of the experimental period, slides were fixed in freshly prepared 4% paraformaldehyde. […] Slides were rinsed three times for 5 min and then mounted and visualized under a fluorescence microscope.

WI38 cells [2] = test: Western blot of lipogenic and myogenic marker proteins in WI38 cells (nicotine with or without lipogenic pathway agonists); assay type: cell-based, human; settings: PTHrP 5×10^−7 M, DBcAMP 1×10^−4 M, RGZ 1×10^−5 M
Procedure: (§1) The human embryonic cell line WI38 was obtained from American Type Culture Collection (Rockville, Md.). Cells were grown in MEM plus 10% FBS at 37° C. in six-well plates, four-well slides, and 60- and 100-mm culture dishes as needed.
Western blotting was performed with modifications of methods described previously (Ayad and Wong (1998) Crit. Care Med 26: 1277-1282). […] Equal amounts of the protein (25 μg) from the supernatant were dissolved in electrophoresis sample buffer and were subjected to SDS-PAGE (4-12% gradient) followed by electrophoretic transfer to a nitrocellulose membrane. Nonspecific binding of antibody was blocked by washing with Tris-buffered saline (TBS) containing 5% milk for 1 h. The blot was then subjected to two brief washes with TBS plus 0.5% Tween 20, incubated in TBS plus 0.1% Tween 20 and the specific primary antibodies (PPAR 1:2,000, Alexis Biochemicals, San Diego, Calif.; -SMA 1:50,000, Sigma; ADRP 1:3,000, a kind gift from Dr. Constantine Londos, National Institute of Diabetes and Digestive and Kidney Diseases) overnight at 4° C. Blots were then washed in TBS plus 0.1% Tween 20 and then incubated for 1 h in secondary antibody, washed, and developed with a chemiluminescent substrate (ECL; Amersham, Arlington Heights, Ill.) following the manufacturer's protocol.

WI38 cells [3] = test: Reversal of nicotine-induced LIF-to-MYF transdifferentiation in WI38 cells, Western analysis; settings: for reversal of nicotine-induced decrease in PTHrP receptor expression: 7 days agonist after 7 days nicotine 10^−9 M (Example 3); for reversal of nicotine-induced decrease in PPARγ expression / reversal of nicotine-induced increase in αSMA expression: 7 days agonist after 7 days nicotine (Example 3); for reversal of nicotine-induced changes in expression of PTHrP receptor, PPARγ, ADRP, αSMA and calponin: RGZ 1×10^−5 M, PTHrP 5×10^−7 M, DBcAMP 1×10^−5 M for 7 days after 7 days nicotine
Procedure: The human embryonic cell line WI38 was obtained from the American Type Culture Collection (Rockville, Md.). Cells were grown in minimum essential medium (MEM) +10% fetal bovine serum at 37° C. in six-well plates, two well slides, and 60-mm and 100-mm culture dishes, as needed. […] Subsequently, the cells were treated with rosiglitazone (RGZ) (1×10^−5 M) (a PPARγ agonist), PTHrP (5×10^−7 M), or DBcAMP (1×10^−5 M) for 7 days, and the expression of PTHrP receptor, PPARγ, ADRP, calponin, and cSMA was determined by Western analysis and immunohistochemistry. Simultaneously, fibroblast function was characterized by measuring their capacity to take up triglycerides. Some experiments were performed in the presence of a specific PPARγ antagonist, GW9662. Medium containing fresh chemicals was added daily, and at the end of the experimental period the cells were processed as needed.
For Western blotting, cells were lysed using an extraction buffer [10 mM tris (hydroxymethyl) aminomethane (Tris, pH 7.5), 0.25 M sucrose, 1 mM EDTA, 5 mM benzamidine, 2 mM phenylmethylsulfonyl fluoride, and 10 (j.tg/ml each of pepstatin A, aprotinin, and leupeptin], and centrifuged at 140 g for 10 min (4° C.). Equal amounts of the protein (25 μg) from the supernatant were dissolved in electrophoresis sample buffer and were subjected to sodium dodecyl sulfate-polyacrylamide (4%-12% gradient) gel electrophoresis (SDS-PAGE) followed by electrophoretic transfer to a nitrocellulose memane. The nonspecific binding of antibody was blocked by washing with Tris-buffered saline (TBS) containing 0.1% Tween 20 (TBST) and 5% milk for 1 h. The blot was then subjected to two brief washes with TBST plus 0.5% Tween 20, incubated in TBST plus 0.1% Tween 20 and the specific primary antibodies (PPARγ 1:2000, Alexis Biochemicals, San Diego, Calif.; cSMA 1:50,000, Sigma, St. Louis, Mo.: ADRP 1:3000) overnight at 4° C. Blots were then washed in TBST plus 0.1% Tween 20 and then incubated for 1 h in secondary antibody, washed, and developed with a chemiluminescent substrate [enhanced chemiluminescence (ECL); Amersham, Arlington Heights, Ill.] following the manufacturer's protocol. The densities of the specific protein bands were quantified using a scanning densitometer (Eagle Eye II still video system, Stratagene, La Jolla, Calif.).

WI38 cells [4] = test: Reversal experiment, triglyceride (triolein) uptake by WI38 cells; assay type: cell-based, human; settings: RGZ 10^−5 M, PTHrP 5×10^−7 M, DBcAMP 1×10^−5 M for 7 days after nicotine
WI38 cells [5] = test: Triglyceride uptake assay ([3H]triolein) in WI38 cells; assay type: cell-based, human; settings: concomitant treatment; RGZ 1×10^−5 M, PTHrP 5×10^−7 M, DBcAMP 1×10^−4 M; nicotine 1×10^−9 M, 7 days
Procedure: as §1
The method used to quantitate triglyceride uptake by fetal rat lung fibroblasts has been described previously (Torday et al. (1995) Biochim Biophys Acta 1254: 198-206). Briefly, culture medium was replaced with DMEM containing 20% adult rat serum mixed with [3H]triolein (5 μCi/ml). The cells were incubated at 37° C. in 5% CO2+balance air for 4 h. At the termination of the incubation, the medium was decanted, the cells were rinsed twice with 1 ml of ice-cold MEM, and the cells were removed from the culture plate after a 5- to 10-min incubation with 2 ml of a 0.05% trypsin solution. An aliquot of the cell suspension was taken for protein assay (Bradford (1976) Anal Biochem 72: 248-254), and the remaining cell suspension was extracted for neutral lipid content.

Compound | reversal of nicotine-induced decreases in ADRP and lipid droplet staining and increase in αSMA staining (WI38 cells [1]) | prevention of nicotine-induced decreases in PTHrP receptor and PPAR and increase in α-SMA protein expression (WI38 cells [2]) | reversal of nicotine-induced decrease in PTHrP receptor expression (WI38 cells [3]) | reversal of nicotine-induced decrease in PPARγ expression (WI38 cells [3]) | reversal of nicotine-induced increase in αSMA expression (WI38 cells [3]) | reversal of nicotine-induced changes in expression of PTHrP receptor, PPARγ, ADRP, αSMA and calponin (WI38 cells [3]) | block of nicotine-induced decrease in triolein uptake (WI38 cells [4]) | prevention of nicotine-induced decrease in triglyceride uptake (WI38 cells [5])
CCCC(=O)Nc1ncnc2c1ncn2[C@@H]1O[C@@H]2COP(=O)(O)O[C@H]2[C@H]1OC(=O)CCC [DBcAMP, dibutyryl cAMP] | reversed | completely prevented | reversed | did not reach statistical significance | reversed | almost completely reversed | at least partially blocked | effectively prevented
PTHrP-(1-34) |  | completely prevented | reversed | reversed | reversed | almost completely reversed | at least partially blocked | effectively prevented
